Values joined by “and” are separate entries in the source; they are usually repeats but may differ in a detail not shown here. Identical values can stand only once.
System: hypercholesterolemia in Wistar rats
Experiment: Model of hypercholesterolemia in rats (oral cholesterol loading)
Format: in vivo, rat
Experimental: The study was carried out on male Wistar rats weighing 200±20 g. Hyperlipidemia was induced by oral administration of cholesterol loading, oily cholesterol suspension:
olive oil (Acorsa, Spain)—5 ml/kg weigh of animals;
cholesterol (Sigma, USA)—1 g/kg weight;
sodium cholate (Sigma, USA)—100 mg/kg weight.
As a reference preparation, the preparation from the group of statines “Mevacor” (Lovastatine) manufactured by the firm Merck Sharp & Dohn was used at dose 40 mg/kg. Cholesterol suspension was administered daily in the morning for 10 days. The compounds tested (at dose 500 μg/kg) and the reference preparation (at dose 40 mg/kg) were administered to the animals togester with cholesterol suspension for 10 days. All the animals received a standard briquetted forage.
The animals were divided into the following groups:
“Control”—intact animals (n=5);
“Cholesterol”—rats that orally received cholesterol loading (n=10);
“Lovastatine”—rats that orally received cholesterol loading and Lovastatine (n=10);
“Compound IV”—rats that orally received cholesterol loading and the tested compound IV (n=10).
Blood was sampled at days 5, 8 and 10 of the experiment.
Statistical processing of the hypolipidemic action data of the tested substances was carried out with regard to the “Cholesterol” group (Table 13).
Experimental groups included:
1) “Cholesterol”—rats orally administered with oily cholesterol suspension for 10 days;
2) “Compound IV”—rats orally administered with oily cholesterol suspension and the tested compound N;
3) “Compound IV—1Na”—rats orally administered with oily cholesterol suspension and the tested mono-sodium salt of compound N;
4) “Compound IV—2Na”—rats orally administered with oily cholesterol suspension and the tested di-sodium salt of compound N;
5) “Compound V—1Na”—rats orally administered with oily cholesterol suspension and the tested mono-sodium salt of the compound V;
6) “Compound III—1Na”—rats orally administered with oily cholesterol suspension and the tested mono-sodium salt of the compound III;
7) “Compound II—1Na”—rats orally administered with oily cholesterol suspension and the tested mono-sodium salt of the compound II;
8) “Sim”—rats orally administered with oily cholesterol suspension and Simvastatine;
9) control—intact rats before beginning the test.
At day 10 of the test blood samples were taken following decapitation of the animals. The animals fasted for 12 hours prior to decapitation.
Blood serum total cholesterol, triglycerides and high density lipoprotein cholesterol (HDLC) were measured. Low and very low density lipoprotein cholesterol was calculated by the difference between total cholesterol and HDL cholesterol.
Blood serum total cholesterol and triglycerides were determined using the enzymatic methods.
Cholesterol level in high density lipoproteins (α-LP) was determined using the precipitation method of LDL and VLDL with phosphotungstic acid and magnesium ions.
Data in the tables are presented as a mean value±standard error. Significance of differences between the groups “cholesterol” and “preparation.” was assessed by the two-sampled Student's t-test.

[1] = day 5 of the experiment (Table 15)
[2] = day 5 of the experiment (Table 15), oral with oily cholesterol suspension
[3] = day 8 of the experiment (Table 16)
[4] = day 10 of the experiment (Table 17)
[5] = day 5 of the experiment (Table 19)
[6] = day 5 of the experiment (Table 19, n = 12 series)
[7] = day 8 of the experiment (Table 20)
[8] = day 10 of the experiment (Table 21)
[9] = oral 10 days with cholesterol loading, tested compound 500 μg/kg, reference 40 mg/kg (Table 13)
[10] = day 10 of the experiment (Table 21), Monosodium Salt
[11] = rats with cholesterol loading, vs Cholesterol group

CCC(C)(C)C(=O)O[C@H]1C[C@@H](C)C=C2C=C[C@H](C)[C@H](CC[C@@H]3C[C@@H](O)CC(=O)O3)[C@H]21 [Sim, Simvastatine, reference compound]
Total cholesterol, HDL [1]: 27.8 ± 2.7 mg/100 ml | Total cholesterol, LDL + VLDL [1]: 43.0 ± 8.3 mg/100 ml | Triglycerides, Serum [1]: 108.9 ± 6.9 mg/100 ml | Total cholesterol, Serum [2]: 73.6 ± 7.3 mg/100 ml | Total cholesterol, HDL [3]: 33.2 ± 1.8 mg/100 ml | Total cholesterol, LDL + VLDL [3]: 66.9 ± 13.4 mg/100 ml | Total cholesterol, Serum [3]: 100.1 ± 12.8 mg/100 ml | Triglycerides, Serum [3]: 119.9 ± 10.5 mg/100 ml | Total cholesterol, HDL [4]: 32.7 ± 1.2 mg/100 ml | Total cholesterol, LDL + VLDL [4]: 61.2 ± 9.7 mg/100 ml | Total cholesterol, Serum [4]: 93.9 ± 10.2 mg/100 ml | Triglycerides, Serum [4]: 142.0 ± 5.4 mg/100 ml | effect on HDL cholesterol (in words) (rats with cholesterol loading): did not effect

O=C(O)CCC(=O)N[C@@H](Cc1c[nH]c2ccccc12)C(=O)[O-].[Na+] [II-1Na, N^+-succinyl-L-tryptophane Monosodium Salt]
Total cholesterol, HDL [5]: 49.5 ± 3.8 mg/100 ml | Total cholesterol, LDL + VLDL [5]: 60.2 ± 10.6 mg/100 ml | Triglycerides, HDL [5]: 32.6 ± 2.5 mg/100 ml | Triglycerides, LDL + VLDL [5]: 48.2 ± 4.9 mg/100 ml | Triglycerides, Serum [5]: 80.9 ± 5.5 mg/100 ml | Total cholesterol, Serum [6]: 109.7 ± 9.4 mg/100 ml | Total cholesterol, HDL [7]: 52.9 ± 4.1 mg/100 ml | Total cholesterol, LDL + VLDL [7]: 87.9 ± 14.5 mg/100 ml | Total cholesterol, Serum [7]: 140.8 ± 13.6 mg/100 ml | Triglycerides, HDL [7]: 44.5 ± 2.5 mg/100 ml | Triglycerides, LDL + VLDL [7]: 73.9 ± 15.4 mg/100 ml | Triglycerides, Serum [7]: 111.6 ± 17.2 mg/100 ml | Total cholesterol, HDL [8]: 54.7 ± 2.2 mg/100 ml | Total cholesterol, LDL + VLDL [8]: 79.7 ± 12.6 mg/100 ml | Total cholesterol, Serum [8]: 134.4 ± 12.5 mg/100 ml | Triglycerides, HDL [8]: 38.9 ± 2.4 mg/100 ml | Triglycerides, LDL + VLDL [8]: 69.6 ± 11.1 mg/100 ml | Triglycerides, Serum [8]: 108.5 ± 11.3 mg/100 ml

O=C([O-])CCC(=O)N[C@@H](Cc1c[nH]cn1)C(=O)O.[Na+] [Compound V—1Na, N^α-succinyl-L-histidine Monosodium Salt]
effect on serum total triglycerides (in words) (rats with cholesterol loading): ability thereof to lower serum total triglyceride levels

CC[C@H](C)C(=O)O[C@H]1C[C@@H](C)C=C2C=C[C@H](C)[C@H](CC[C@@H]3C[C@@H](O)CC(=O)O3)[C@H]21 [Lovastatine, reference compound]
Total cholesterol, CHDL [9]: 50.6 ± 1.3 mg/100 ml | Total cholesterol, CLLD + CLVLD [9]: 49.9 ± 0.9 mg/100 ml | Total cholesterol, Liver [9]: 2.41 ± 0.17 mg/g of tissue | Total cholesterol, Serum [9]: 100.5 ± 6.7 mg/100 ml | Triglycerids, Liver [9]: 6.25 ± 0.13 mg/g of tissue | Triglycerids, Serum [9]: 93.6 ± 7.5 mg/100 ml

O=C([O-])CCCC(=O)N[C@@H](Cc1c[nH]cn1)C(=O)O.[Na+] [Compound IV-1Na, N^α-glutaryl-L-histidine Monosodium Salt]
Total cholesterol, HDL [1]: 33.1 ± 1.4 mg/100 ml | Total cholesterol, LDL + VLDL [1]: 38.8 ± 2.9 mg/100 ml | Triglycerides, Serum [1]: 106.6 ± 6.2 mg/100 ml | Total cholesterol, Serum [2]: 72.0 ± 3.0 mg/100 ml | Total cholesterol, HDL (day 5 of the experiment (Table 19), Monosodium Salt): 60.7 ± 3.1 mg/100 ml and 55.1 ± 2.8 mg/100 ml | Total cholesterol, Serum (day 5 of the experiment (Table 19, n = 12 series), Monosodium Salt): 94.4 ± 3.4 mg/100 ml and 96.9 ± 4.5 mg/100 ml | Total cholesterol, HDL [3]: 37.1 ± 1.4 mg/100 ml | Total cholesterol, LDL + VLDL [3]: 61.9 ± 6.6 mg/100 ml | Total cholesterol, Serum [3]: 99.1 ± 6.0 mg/100 ml | Triglycerides, Serum [3]: 146.4 ± 11.2 mg/100 ml | Total cholesterol, HDL [4]: 37.7 ± 1.0 mg/100 ml | Total cholesterol, LDL + VLDL [4]: 59.7 ± 7.2 mg/100 ml | Total cholesterol, Serum [4]: 97.4 ± 7.1 mg/100 ml | Triglycerides, Serum [4]: 132.5 ± 8.4 mg/100 ml | Total cholesterol, HDL [10]: 53.4 ± 2.2 mg/100 ml and 52.9 ± 3.8 mg/100 ml | Total cholesterol, LDL + VLDL [10]: 68.7 ± 10.1 mg/100 ml and 70.5 ± 8.9 mg/100 ml | Total cholesterol, Serum [10]: 122.1 ± 9.8 mg/100 ml and 123.3 ± 7.3 mg/100 ml

O=C([O-])CCCC(=O)N[C@@H](Cc1c[nH]cn1)C(=O)[O-].[Na+].[Na+] [Compound IV” 2Na, N^α-glutaryl-L-histidine disodium salt]
Total cholesterol, HDL [1]: 35.0 ± 1.3 mg/100 ml | Total cholesterol, LDL + VLDL [1]: 44.3 ± 2.7 mg/100 ml | Triglycerides, Serum [1]: 88.3 ± 4.8 mg/100 ml | Total cholesterol, Serum [2]: 80.6 ± 2.8 mg/100 ml | Total cholesterol, HDL [3]: 35.9 ± 1.8 mg/100 ml | Total cholesterol, LDL + VLDL [3]: 54.3 ± 5.8 mg/100 ml | Total cholesterol, Serum [3]: 90.2 ± 5.1 mg/100 ml | Triglycerides, Serum [3]: 125.8 ± 9.4 mg/100 ml | Total cholesterol, HDL [4]: 40.0 ± 1.9 mg/100 ml | Total cholesterol, LDL + VLDL [4]: 57.3 ± 4.3 mg/100 ml | Total cholesterol, Serum [4]: 97.9 ± 3.9 mg/100 ml | Triglycerides, Serum [4]: 127.3 ± 6.2 mg/100 ml | effect on serum total triglycerides (in words) (rats with cholesterol loading): lowered serum total triglyceride levels at days 5 and 10

O=C([O-])CCCC(=O)N[C@@H](Cc1c[nH]c2ccccc12)C(=O)O.[Na+] [III-1Na, N^α-glutaryl-L-tryptophan Monosodium Salt]
Total cholesterol, HDL [5]: 49.0 ± 2.1 mg/100 ml | Total cholesterol, LDL + VLDL [5]: 40.0 ± 5.4 mg/100 ml | Triglycerides, HDL [5]: 30.0 ± 2.2 mg/100 ml | Triglycerides, LDL + VLDL [5]: 57.4 ± 9.1 mg/100 ml | Triglycerides, Serum [5]: 87.4 ± 9.4 mg/100 ml | Total cholesterol, Serum [6]: 89.0 ± 5.0 mg/100 ml | Total cholesterol, HDL [7]: 48.4 ± 2.7 mg/100 ml | Total cholesterol, LDL + VLDL [7]: 60.4 ± 8.3 mg/100 ml | Total cholesterol, Serum [7]: 108.8 ± 8.2 mg/100 ml | Triglycerides, HDL [7]: 45.2 ± 3.2 mg/100 ml | Triglycerides, LDL + VLDL [7]: 79.2 ± 7.7 mg/100 ml | Triglycerides, Serum [7]: 124.4 ± 8.9 mg/100 ml | Total cholesterol, HDL [8]: 48.8 ± 2.4 mg/100 ml | Total cholesterol, LDL + VLDL [8]: 53.5 ± 7.3 mg/100 ml | Total cholesterol, Serum [8]: 102.3 ± 6.9 mg/100 ml | Triglycerides, HDL [8]: 34.3 ± 2.3 mg/100 ml | Triglycerides, LDL + VLDL [8]: 75.0 ± 8.5 mg/100 ml | Triglycerides, Serum [8]: 109.3 ± 10.5 mg/100 ml | effect on HDL cholesterol (in words) (rats with cholesterol loading): did not change | effect on serum total triglycerides (in words) (rats with cholesterol loading): did not change | lowered cholesterol of the VLDL+LDL fractions [11]: 40% | lowered total cholesterol [11]: 29%
